Patent US20210361664A1, “CORTICOTROPIN RELEASING FACTOR RECEPTOR ANTAGONISTS” (Spruce Biosciences, Inc., priority 2017, published 2021)

Assays:
[1] = Study 1: single-escalating oral dose pharmacokinetics, incl. food effect (Phase 1); assay type: in vivo, human; conditions: 50 to 800 mg, fed state
Protocol: Study 1 was the first-in-human study that investigated the safety, tolerability, and PK of single-escalating doses of Compound 1, given orally, to healthy adult subjects. […] The data from this study were used for the selection of doses for Study 2.
In Study 1, Compound 1 was administered to healthy adult subjects as a single PO dose of 2, 10, 50, 150, 400, or 800 mg in the fed state and 150 mg in the fasted state. Absorption occurred moderately late, achieving peak Cmax between 4 to 6 hours following dosing in the fed state.
When Compound 1 was given in the fed state, median time to reach maximum plasma concentration (Tmax) occurred between 4 and 6 hours.
As part of this single-dose escalation study, a food effect PK investigation was performed to examine Compound 1 exposures in both the fed and fasted states at the 150-mg dose level. A total of 6 subjects were administered 150 mg Compound 1 in each of these 2 dosing groups. Of these 6 subjects, 4 subjects received Compound 1 at the same dose in both fed and fasted states. […] Table 6 provides a summary of the PK parameters at the 150-mg dose level under both fed and fasted state conditions.
PK parameters AUC0-∞ and Cmax were analyzed separately for dose proportionality for Compound 1 from 50 to 800 mg when administered in the fed state. […]

[2] = Study 2 Part A: multiple-dose, dose-escalation pharmacokinetics (Phase 1, 14 days); assay type: in vivo, human; conditions: after 2 weeks of dosing
Protocol: The 2-part multiple-dose study, Study 2, determined the safety and tolerability of repeated daily doses of Compound 1 and investigated the effects on biomarkers of relevance for the treatment of alcohol dependence.
PK were also evaluated in the multiple-dose, dose-escalation study, Study 2. In Part A of the study, subjects were divided into 3 cohorts and received 50, 150, or 200 mg Compound 1 or placebo for 14 consecutive days (at least 6 subjects received Compound 1 and 2 subjects received placebo in each cohort). […] All dosing occurred in the fed state. An assessment of diurnal cortisol levels, plus when under conditions of glucose clamp, were also carried out both prior to and during the dosing period.
Consistent with the single-dose study (Study 1), concentrations appeared to decline in a bi-exponential manner, characterized by a rapid decrease within the first 24 hours. […] The Tmax appeared to be consistent across doses. Overall half-lives, weight normalized CL/F and V/F were consistent for 150 and 200 mg. However, the values for these latter 2 parameters were almost doubled at the 50-mg dose level. Variability (CV %) for apparent clearance and volume of distribution were large and not reduced with weight-normalization.
Table 8 presents the results of the dose proportionality assessment for the AUC0-24 and Cmax over the tested dose range.

CRF1 receptor = biological target: T1, CRF1 receptor (Homo sapiens, UniProt P34998); experiment: Phase 2 study in adults with classic CAH: hormone response (ACTH, 17-OHP, androstenedione); assay type: in vivo
T1 construct: from tissue; host or cells: in vivo, human patients (anterior pituitary corticotrophs)
T1 sequence (P34998 24-415): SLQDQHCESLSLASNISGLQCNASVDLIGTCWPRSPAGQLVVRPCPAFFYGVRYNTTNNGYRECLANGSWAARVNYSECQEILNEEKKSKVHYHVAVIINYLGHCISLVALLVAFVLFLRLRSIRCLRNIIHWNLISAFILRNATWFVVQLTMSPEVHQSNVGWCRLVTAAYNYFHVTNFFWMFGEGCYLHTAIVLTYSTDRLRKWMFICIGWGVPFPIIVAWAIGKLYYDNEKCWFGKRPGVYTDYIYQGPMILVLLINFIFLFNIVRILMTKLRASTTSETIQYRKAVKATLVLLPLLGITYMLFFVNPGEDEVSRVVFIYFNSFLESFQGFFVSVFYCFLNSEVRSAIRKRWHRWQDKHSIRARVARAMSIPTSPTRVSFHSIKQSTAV
Text: Cohort A of the Phase 2 Study includes a 6-week, multiple-dose, dose escalation study of Compound 1 for the treatment of adults with classic CAH. After screening, eligible patients will be enrolled into a 6-week treatment period followed by a 4-week washout/safety follow-up period.
This cohort will be conducted in approximately 9 patients, who will receive Compound 1 daily for up to 6 weeks. Compound 1 will be administered as an oral daily dose. Patients will undergo titration of Compound 1 through three escalating dosage strengths at 2-week intervals. […]
Patients in Cohort B will receive study drug at 200 mg BID, with a dose in the morning and a dose in the evening, either with a meal or consumption of a standardized snack. For Cohorts C and D, the dose level and the frequency and timing of dosing will be determined based on interim data from the previous cohorts. […]
• 1. […] To assess the efficacy of Compound 1 in subjects with classic CAH as measured by percent and absolute change in 17-OHP compared to baseline.
• 3. To explore the dose(s) of Compound 1 that cause pharmacodynamics changes in plasma concentrations of ACTH, androstenedione, and testosterone, as measured by the absolute and percent change from baseline by dose. • 4. […]

AUC0-∞ increase for every doubling of dose, relative to dose proportionality [1]: 1.74 times | Cmax dose proportionality, in words [1]: more than dose proportional | Blood concentrations relative to steady state [2]: close to steady-state levels | subjects with 17-OHP within the guideline range after treatment (CRF1 receptor; guideline range (1200 ng/dL)): 50% | morning rise in A4 (CRF1 receptor; patients with CAH): attenuates
SMILES: CCC(CC)c1cc(C)nc2c(-c3sc(N4CCOCC4)nc3Cl)c(C)nn12 [Compound 1, 3-(4-Chloro-2-(morpholin-4-yl)thiazol-5-yl)-7-(1-ethylpropyl)-2,5-dimethylpyrazolo(1,5-a)pyrimidine]
